Data reported in patent US20180118707A1, “BETA-NAPHTHOISOFLAVONES, COMPOSITIONS CONTAINING, AND USES OF, SAME” (Thesan Pharmaceuticals, Inc., priority 2015, published 2018).

system: CYP1A1; assay: Induction of CYP1A1 enzyme in HepG2 cells, EROD assay; type: cell-based, human; details: human, probe 7-ethoxyresorufin (8 μM)
Experimental: (§1) The formation of resorufin is quantified by fluorometry with a fluorescence plate reader. Fluorescence is determined at λex 570 nm and λem 590 nm. The amount of resorufin is calculated from a standard curve generated using 0 to 1 μM resorufin in water at ½ log dilutions. The remaining (i.e. all cells present at the beginning of analysis, since only supernatant is taken to assay EROD) live cells are subsequently utilized for the MIT cytotoxicity assay. MTT is made up in serum-free medium at 5 mg/ml. then added to the cells giving a final concentration of 10% (0.5 mg/ml MTT final) then incubated for 2 h. The medium is carefully removed, then MTT formazan is solubilized by adding 200 μl of DMSO and subsequently mixed on a plate shaker. The absorbance is measured spectra photometrically at 550 nm and background absorbance at 690 nm is subtracted. A standard curve generated using MIT formazan (dissolved in DMSO) from O—200 μM (0, 2, 5, 10, 20, 50, 100, 200 μM) is used to calculate the final experimental values which are then expressed as (wnol resarufin/mol MTT formazan) or as fold-Induction compared to solvent.

SMILES | EC50 at 24 h [µM]
O=c1c(-c2ccccc2)coc2ccc3ccccc3c12 [Compound B] | 1
O=c1c(-c2ccc(O)cc2)coc2ccc3ccccc3c12 [Compound J] | 1.5
COc1ccccc1-c1coc2ccc3ccccc3c2c1=O [Compound F] | 2

More lines, now with the values ahead:

EC50 at 24 h [µM] | SMILES
1.5 | O=c1c(-c2cccc(O)c2)coc2ccc3ccccc3c12 [Compound H]
2 | COc1cccc(-c2coc3ccc4ccccc4c3c2=O)c1 [Compound G]

system: HepG2 cells; assay: MTT cytotoxicity assay in HepG2 cells after EROD; type: cell-based, human; details: not given
Experimental: as §1, with “subtracted.” for “subtracted. A standard curve generated using MIT formazan (dissolved in DMSO) from O—200 μM (0, 2, 5, 10, 20, 50, 100, 200 μM) is used to calculate the final experimental values which are then expressed as (wnol resarufin/mol MTT formazan) or as fold-Induction compared to solvent.”

SMILES | Toxicity threshold [µM]
O=c1c(-c2ccccc2)coc2ccc3ccccc3c12 [Compound B] | >30
O=c1c(-c2ccc(O)cc2)coc2ccc3ccccc3c12 [Compound J] | 100
COc1ccccc1-c1coc2ccc3ccccc3c2c1=O [Compound F] | >30
O=c1c(-c2cccc(O)c2)coc2ccc3ccccc3c12 [Compound H] | >100
COc1cccc(-c2coc3ccc4ccccc4c3c2=O)c1 [Compound G] | 100

system: CYP1A1; assay: Induction of CYP1A1 enzyme in human cultured sebocytes, EROD assay; type: cell-based; details: cultured sebocytes, probe 7-ethoxyresorufin (8 μM)
Experimental: Cells are seeded at between 1×10^4 and 2.5×10^4 cells/well in a 96-well microtitre plate. […] 100 μl of medium is then transferred to a fresh black 96-well plate and 130 μl methanol added. The formation of resorufin is quantified by fluorometry with a fluorescence plate reader. Fluorescence is determined at λex 570 nm and λem 590 nm. The amount of resorufin is calculated from a standard curve generated using 0 to 1 μM resorufin in water at ½ log dilutions. The remaining (i.e. all cells present at the beginning of analysis, since only supernatant is taken to assay EROD) live cells are subsequently utilized for the MU cytotoxicity assay. MU is made up in serum-free medium at 5 mg/mi. then added to the cells giving a final concentration of 10% (0.5 mg/ml MIT final) then incubated for 2 h. The medium is carefully removed, then MIT formazan is solubilized by adding 200 μl of DMSO and subsequently mixed on a plate shaker. The absorbance is measured spectrophotometrically at 550 nm and background absorbance at […] is subtracted. A standard curve generated using MTT formazan (dissolved in DMSO) from O—200 μM (0, 2, 5, 10, 20, 50, 100, 200 μM) is used to calculate the final experimental values which are then expressed as (μmol resorufin/mol MTT formazan) or as fold-induction compared to solvent.

SMILES | EC50 at 24 h [µM]
O=c1c(-c2ccccc2)coc2ccc3ccccc3c12 [Compound B] | 0.05
O=c1c(-c2ccc(O)cc2)coc2ccc3ccccc3c12 [Compound J] | 0.05
COc1ccccc1-c1coc2ccc3ccccc3c2c1=O [Compound F] | 0.2

Further lines, results first:

EC50 at 24 h [µM] | SMILES
0.25 | O=c1c(-c2cccc(O)c2)coc2ccc3ccccc3c12 [Compound H]
0.25 | COc1cccc(-c2coc3ccc4ccccc4c3c2=O)c1 [Compound G]

system: human sebocyte cells; assay: MTT cytotoxicity assay in human cultured sebocytes after EROD; type: cell-based; details: not given
Experimental: The essential methodology for culture and handling of human cultured sebocytes has been described in earlier examples for HEPG2 and NHK cells. Cells are seeded at between 1×10^4 and 2.5×10^4 cells/well in a 96-well microtitre plate. […] The formation of resorufin is quantified by fluorometry with a fluorescence plate reader. Fluorescence is determined at λex 570 nm and λem 590 nm. The amount of resorufin is calculated from a standard curve generated using 0 to 1 μM resorufin in water at ½ log dilutions. The remaining (i.e. all cells present at the beginning of analysis, since only supernatant is taken to assay EROD) live cells are subsequently utilized for the MU cytotoxicity assay. MU is made up in serum-free medium at 5 mg/mi. then added to the cells giving a final concentration of 10% (0.5 mg/ml MIT final) then incubated for 2 h. The medium is carefully removed, then MIT formazan is solubilized by adding 200 μl of DMSO and subsequently mixed on a plate shaker. The absorbance is measured spectrophotometrically at 550 nm and background absorbance at […] is subtracted. A standard curve generated using MTT formazan (dissolved in DMSO) from O—200 μM (0, 2, 5, 10, 20, 50, 100, 200 μM) is used to calculate the final experimental values which are then expressed as (μmol resorufin/mol MTT formazan) or as fold-induction compared to solvent.

SMILES | Toxicity threshold [µM]
O=c1c(-c2ccccc2)coc2ccc3ccccc3c12 [Compound B] | >30
O=c1c(-c2ccc(O)cc2)coc2ccc3ccccc3c12 [Compound J] | >30
COc1ccccc1-c1coc2ccc3ccccc3c2c1=O [Compound F] | 50
O=c1c(-c2cccc(O)c2)coc2ccc3ccccc3c12 [Compound H] | >30
COc1cccc(-c2coc3ccc4ccccc4c3c2=O)c1 [Compound G] | 30

system: sebaceous glands; assay: Mouse ear assay for determination of sebaceous gland prevalence; type: in vivo; details: C57BL/6 mice, ears, 1% solution in DMSO:acetone 50:50 twice a day for five days, vs controls
Experimental: C57BL/6.I male mice (Harlan Models), approximately 4-5 weeks of age, body weight 20-30 g, were acclimatized (individually housed) for 5 days in a 12 hour light/dark cycle standard laboratory environment (T=20-24° C., relative humidity 30-70%, 15-20 air changes per hour) with access to water and standard rodent chow (Harlan Teklad 2014C supplied by Harlan Laboratories Models, S.L.) ad libitum. Animals were anesthetized with isoflurane and the test article (80 ul, 1% solution in DMSO:acetone 50:50) was administered to the outer surface of each of the ears of between 2 and 5 mice twice a day for five days by dermal application using a micropipette tip (a little volume of the solution was also applied on the inner side of the ears). All animals were monitored daily for reaction to the treatment, signs of illness, and behavioral changes. Body weights were recorded before the first administration and immediately prior to sacrifice. Approximately 12 to 16 hours after the final administration on day 5 the mice were sacrificed by i.p. injection of sodium pentobarbital (200 mg/kg) and the ears were collected. Each ear was sectioned into two halves. For each animal, one-half of one ear was fixed, in neutral phosphate-buffered 4% formaldehyde solution (4% formalin). This trimmed section of the ear was then processed, embedded in paraffin wax and stored at room temperature. […]

SMILES | number of differentiated sebocytes | number of sebaceous glands
O=c1c(-c2ccccc2)coc2ccc3ccccc3c12 [Compound B] | reduction | clear reduction
